Results taken from patent US5053070A, “Pyrimidine derivatives, preparation processes thereof, herbicide containing the same, and herbicidal compositions containing the same along with other active ingredient” (Mitsui Toatsu Chemicals, Incorporated, priority 1988, dated 1991).
≈ marks a conversion by molar mass, not a printed value.

Tests used:
[1] = test system: ALS (acetolactate syntase); assay: ALS enzyme assay (Test 1); format: biochemical, barnyardgrass; details: 1,000 ppm (0.5 mg/0.5 ml)
Method in brief: (§1)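 Partially purified ALS from dark-grown pea and barnyardgrass seedlings incubated 1 h at 30° C with pyruvate, TPP, MgCl2 and FAD. Compounds tested at 1,000 ppm (0.5 mg/0.5 ml). Acetoin formed detected colorimetrically at 525 nm via creatine/α-naphthol, relative to blank and acid-stopped controls.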

[2] = test system: ALS (acetolactate syntase); assay: ALS enzyme assay (Test 1); format: biochemical, pea; details: 1,000 ppm (0.5 mg/0.5 ml)
Method in brief: as §1

[3] = test system: cotton; assay: Upland soil application test (Test 2), crop injury; format: in vivo; details: 30 g ai/a, soil spray before emergence, 30 days later
Method in brief: (§2)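 Steps: fill pots with fertilized upland field soil containing uniformly mixed weed seed; sow crops and cover with 2-3 cm soil; after one day, spray the diluted wettable powder evenly over the soil at 10 l per are; assess at 30 days against untreated controls by dry weight.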

[4] = test system: peanut; assay: Upland soil application test (Test 2), crop injury; format: in vivo; details: 30 g ai/a, soil spray before emergence, 30 days later
Method in brief: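 Pre-emergence test in upland soil pots with weed seeds mixed into the soil; one day after seeding, wettable-powder formulation diluted in water and sprayed onto the soil surface at 10 l per are. Damage scored 30 days later from air-dried weight relative to untreated pots.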

[5] = test system: soybean; assay: Upland soil application test (Test 2), crop injury; format: in vivo; details: 30 g ai/a, soil spray before emergence, 30 days later
Method in brief: as §2

[6] = test system: barnyardgrass; assay: Upland foliar application test (Test 3); format: in vivo; details: 30 g ai/a, foliar spray at 2-3 leaves, 30th day
Method in brief: (§3)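 Upland-soil pots seeded with weeds and crops (incl. cotton, large crabgrass, johnsongrass, common lambsquarters), grown in greenhouse to 2-3 leaf stage. Emulsion diluted with water sprayed on foliage at 5 l per are via ULV sprayer. Weed damage and crop injury scored 30 days after spraying.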

[7] = test system: common lambsquarters; assay: Upland foliar application test (Test 3); format: in vivo; details: 30 g ai/a, foliar spray at 2-3 leaves, 30th day
Method in brief: as §3

[8] = test system: foxtail meadow; assay: Upland foliar application test (Test 3); format: in vivo; details: 30 g ai/a, foliar spray at 2-3 leaves, 30th day
Method in brief: as §3

[9] = test system: green foxtail; assay: Upland foliar application test (Test 3); format: in vivo; details: 30 g ai/a, foliar spray at 2-3 leaves, 30th day
Method in brief: as §3

[10] = test system: johnsongrass; assay: Upland foliar application test (Test 3); format: in vivo; details: 30 g ai/a, foliar spray at 2-3 leaves, 30th day
Method in brief: as §3

[11] = test system: large crabgrass; assay: Upland foliar application test (Test 3); format: in vivo; details: 30 g ai/a, foliar spray at 2-3 leaves, 30th day
Method in brief: as §3

[12] = test system: redroot pigweed; assay: Upland foliar application test (Test 3); format: in vivo; details: 30 g ai/a, foliar spray at 2-3 leaves, 30th day
Method in brief: as §3

[13] = test system: rice; assay: Treatment of soil under submerged condition, post-emergence (Test 5), injury; format: in vivo; details: 30 g ai/a granule, 30 days later
Method in brief: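 Weeds seeded or tubers planted in flooded soil in Wagner pots, with 2–3-leaf rice seedlings transplanted in pairs and grown in greenhouse. At barnyardgrass two-leaf stage, pots received a granule of the test composition at a predetermined amount. Weed emergence and rice injury were scored 30 days later.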

[14] = test system: narrowleaf waterplantain; assay: Petri dish test (Test 6); format: in vivo; details: 336 h; seeds on filter paper, 25° C., 14 days; read-out: I80 (ppm)
Method in brief: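 Narrowleaf waterplantain seeds placed on filter paper pre-treated with compound in acetone (solvent air-dried) in 9 cm Petri dishes with 10 ml water, grown at 25° C in light. Growth was scored after fourteen days as degree of damage against an untreated group.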

Compound | Inhibitory activity (%) Barnyardgrass [1] [%] | Inhibitory activity (%) Pea [2] [%] | Injury Cotton [3] | Injury Peanut [4] | Injury Soybean [5] | Herbicidal effects Barnyardgrass [6] | Herbicidal effects Common lambsquarters [7] | Herbicidal effects Foxtail meadow [8] | Herbicidal effects Green foxtail [9] | Herbicidal effects Johnsongrass [10] | Herbicidal effects Large crabgrass [11] | Herbicidal effects Redroot pigweed [12] | Injury Rice [13] | IC80 [14] [mg/L]
COc1cc(OC)nc(Oc2ccccc2C=NOCC=CCl)n1 [compound 11] | 43 | 0 | 0 (91-100 (No damages)) | 0 (91-100 (No damages)) | 0 (91-100 (No damages)) | 5 (0-5 (Death)) | 4 (6-10 (Severe damages)) | 5 (0-5 (Death)) | 5 (0-5 (Death)) | 5 (0-5 (Death)) | 5 (0-5 (Death)) | 5 (0-5 (Death)) | 0 (91-100 (No damages)) | 40 (≈ 114 µM)
C=C(Cl)CON=Cc1ccccc1Oc1nc(OC)cc(OC)n1 [Compound No. 14] | 56 | 0 | 0 (91-100 (No damages)) | 0 (91-100 (No damages)) | 0 (91-100 (No damages)) | 5 (0-5 (Death)) | 4 (6-10 (Severe damages)) | 5 (0-5 (Death)) | 5 (0-5 (Death)) | 5 (0-5 (Death)) | 5 (0-5 (Death)) | 4 (6-10 (Severe damages)) | 1 (71-90 (Slight damages)) | 100 (≈ 286 µM)
COc1cc(OC)nc(Oc2ccccc2C=NOCC=C(C)Cl)n1 [compound 12] | 39 | 0 | 0 (91-100 (No damages)) | 0 (91-100 (No damages)) | 0 (91-100 (No damages)) | 4 (6-10 (Severe damages)) | 3 (11-40 (Medium damages)) | 4 (6-10 (Severe damages)) | 4 (6-10 (Severe damages)) | 5 (0-5 (Death)) | 4 (6-10 (Severe damages)) | 3 (11-40 (Medium damages)) | 0 (91-100 (No damages)) | 100 (≈ 275 µM)
COc1cc(OC)nc(Oc2ccccc2C=NOCc2cccc3ccccc23)n1 [compound 22] | 35 | 0 | 0 (91-100 (No damages)) | 0 (91-100 (No damages)) | 0 (91-100 (No damages)) | 5 (0-5 (Death)) | 4 (6-10 (Severe damages)) | 5 (0-5 (Death)) | 5 (0-5 (Death)) | 5 (0-5 (Death)) | 5 (0-5 (Death)) | 5 (0-5 (Death)) | 0 (91-100 (No damages)) | 100 (≈ 241 µM)
CC=CCON=Cc1ccccc1Oc1nc(OC)cc(OC)n1 [compound 8] | 41 | 0 | 0 (91-100 (No damages)) | 0 (91-100 (No damages)) | 0 (91-100 (No damages)) | 4 (6-10 (Severe damages)) | 4 (6-10 (Severe damages)) | 5 (0-5 (Death)) | 5 (0-5 (Death)) | 5 (0-5 (Death)) | 3 (11-40 (Medium damages)) | 5 (0-5 (Death)) | 1 (71-90 (Slight damages)) | 40 (≈ 121 µM)
COc1cc(OC)nc(Oc2ccccc2C=NOCC=Cc2ccccc2C)n1 [Compound No. 39] | 92 | 0 | 0 (91-100 (No damages)) | 0 (91-100 (No damages)) | 0 (91-100 (No damages)) | 5 (0-5 (Death)) | 4 (6-10 (Severe damages)) | 5 (0-5 (Death)) | 5 (0-5 (Death)) | 5 (0-5 (Death)) | 5 (0-5 (Death)) | 5 (0-5 (Death)) | 0 (91-100 (No damages)) | 2 (≈ 4.93 µM)
CON=Cc1ccccc1Oc1nc(OC)cc(OC)n1 [Compound No. 1, O-methyl--2-(4,6-dimethoxy-2-pyrimidinyloxy)benzaldoxime] | 58 | 3 | 0 (91-100 (No damages)) | 0 (91-100 (No damages)) | 0 (91-100 (No damages)) | 5 (0-5 (Death)) | 4 (6-10 (Severe damages)) | 5 (0-5 (Death)) | 5 (0-5 (Death)) | 5 (0-5 (Death)) | 3 (11-40 (Medium damages)) | 5 (0-5 (Death)) | 0 (91-100 (No damages)) | 25 (≈ 86.4 µM)

Further lines, with some results ahead:

Inhibitory activity (%) Barnyardgrass [1] [%] | Inhibitory activity (%) Pea [2] [%] | Compound | Injury Cotton [3] | Injury Peanut [4] | Injury Soybean [5] | Herbicidal effects Barnyardgrass [6] | Herbicidal effects Common lambsquarters [7] | Herbicidal effects Foxtail meadow [8] | Herbicidal effects Green foxtail [9] | Herbicidal effects Johnsongrass [10] | Herbicidal effects Large crabgrass [11] | Herbicidal effects Redroot pigweed [12] | Injury Rice [13] | IC80 [14] [mg/L]
89 | 10 | COc1cc(OC)nc(Oc2ccccc2C=NOCC=Cc2ccc(C(F)(F)F)cc2)n1 [compound 35] | 0 (91-100 (No damages)) | 0 (91-100 (No damages)) | 0 (91-100 (No damages)) | 5 (0-5 (Death)) | 4 (6-10 (Severe damages)) | 5 (0-5 (Death)) | 5 (0-5 (Death)) | 5 (0-5 (Death)) | 5 (0-5 (Death)) | 4 (6-10 (Severe damages)) | 0 (91-100 (No damages)) | 6 (≈ 13.1 µM)
94 | 0 | COc1cc(OC)nc(Oc2ccccc2C=NOCC=Cc2ccccc2Br)n1 [compound 40] | 0 (91-100 (No damages)) | 0 (91-100 (No damages)) | 0 (91-100 (No damages)) | 5 (0-5 (Death)) | 4 (6-10 (Severe damages)) | 5 (0-5 (Death)) | 4 (6-10 (Severe damages)) | 5 (0-5 (Death)) | 4 (6-10 (Severe damages)) | 5 (0-5 (Death)) | 1 (71-90 (Slight damages)) | 2 (≈ 4.25 µM)
91 | 0 | COc1cccc(C=CCON=Cc2ccccc2Oc2nc(OC)cc(OC)n2)c1 [compound 38] | 0 (91-100 (No damages)) | 0 (91-100 (No damages)) | 0 (91-100 (No damages)) | 5 (0-5 (Death)) | 4 (6-10 (Severe damages)) | 4 (6-10 (Severe damages)) | 5 (0-5 (Death)) | 5 (0-5 (Death)) | 5 (0-5 (Death)) | 4 (6-10 (Severe damages)) | 1 (71-90 (Slight damages)) | 2 (≈ 4.75 µM)
91 | 0 | COc1cc(OC)nc(Oc2ccccc2C=NOCC=Cc2ccccc2C(F)(F)F)n1 [compound 32] | 0 (91-100 (No damages)) | 0 (91-100 (No damages)) | 0 (91-100 (No damages)) | 5 (0-5 (Death)) | 4 (6-10 (Severe damages)) | 5 (0-5 (Death)) | 5 (0-5 (Death)) | 5 (0-5 (Death)) | 5 (0-5 (Death)) | 5 (0-5 (Death)) | 1 (71-90 (Slight damages)) | 4 (≈ 8.71 µM)
